Test results: patent US20100167261A1, “PLATELET STABILIZATION” (SIEMENS HEALTHCARE DIAGNOSTICS INC., priority 2006, published 2010)
Where two headings read alike, the source gives them in different places.

Experiments:
Assay type in all cases: cell-based
platelets [1] = test: mean platelet component (MPC) of stored blood samples, ADVIA 2120 Hematology System; settings: for mean platelet component (MPC), Average: Table 1, stored at 22° C.
Procedure: The ADVIA® 120 Hematology System is an automated analyzer that, in addition to measuring the conventional hematologic indices, also provides some activation-related information about platelets. Macey M G et al., Cytometry 38:250-55 (1999). It measures the intensity of light scattered by platelets at two different cone angles (2-3° and 5-15° and from the paired values computes platelet volume (PV) and platelet component (PC) concentration on a cell-by-cell basis. These values are then averaged to provide the Mean Platelet Component (MPC).
(§1) The samples were subjected to gently agitation, and were stored either at room temperature (22° C.) or at 4° C., and mean platelet component and mean platelet volume values were obtained at the designated time points using the ADVIA® 2120 system.
(§2) Blood from healthy controls were also collected into Vacutainer® K3E 4.5 mL K3EDTA sample collection tubes (Cat. No. 367654, Becton, Dickinson and Company, Franklin Lakes, N.J.) and combined with the remaining STABILE-1 reagents (citrate-phosphate-dextrose, wortmanin, tyrphostin) to yield the prescribed concentrations. These samples were stored either at room temperature (22° C.) or at 4° C., and mean platelet component values were obtained at the designated time points using the ADVIA® 2120 system.
(§3) Blood from healthy controls were also collected into Vacutainer® K3E 4.5 mL K3EDTA sample collection tubes (Cat. No. 367654, Becton, Dickinson and Company, Franklin Lakes, N.J.) and combined with the remaining STABILE-1 reagents (citrate-phosphate-dextrose, wortmanin, tyrphostin) to yield the prescribed concentrations. […] Mean platelet component and mean platelet volume were assessed at 30 min, 6 hr, and 24 hr following blood collection/initial combination with storage reagents using the ADVIA® 2120 system (Bayer AG, Leverkusen, Germany). Flow cytometry techniques were used to identify platelet activation proteins, and the impact of these strategies on ultrastructural morphology of platelets was morphometrically evaluated using electron microscopy (EM). The values obtained at t=0+30 (i.e., 30 min after blood collection and the initial combination with the storage reagents) were designated as baseline values to which values observed at t=6 hr and t=24 hr were compared.
(§4) Blood from healthy controls were carefully collected, and mean platelet component was assessed upon combination of blood with the respective storage reagents, using the ADVIA® 2120 system (Bayer AG, Leverkusen, Germany), and again at 1 hr, 3 hr, 6 hr, and 24 hr following the initial combination with storage reagents. All samples were stored at room temperature (22° C.).
as §4, with “Experiments were conducted in order to assess the effect of varying the concentration of the citrate-phosphate-dextrose component in the STABILE-1 storage medium on the mean platelet component. Blood” for “Blood”

platelets [2] = settings: for MPV, increase in % vs 30 min baseline: n = 8; for mean platelet volume (MPV), Average: Table 4, stored at 22° C.
Procedure: as §1
as §2, with “volume was assessed” for “values were obtained”
as §3, with “(EM).” for “(EM). The values obtained at t=0+30 (i.e., 30 min after blood collection and the initial combination with the storage reagents) were designated as baseline values to which values observed at t=6 hr and t=24 hr were compared.”

[3] = test system: P-selectin (also known as CD62P); test: P-selectin expression of stored platelets, flow cytometry; settings: 22° C., n = 8
Procedure: as §3

platelets [4] = test: morphometric evaluation of α-granules per platelet and platelet morphology, electron microscopy
Procedure: as §3

platelets [5] = test: morphometric evaluation of dense bodies per platelet, electron microscopy whole mounts; settings: * = statistically significant at the 95% confidence level
From the text: In accordance with published methods, platelet whole mounts were viewed “by transparence”, i.e., while supported on polyvinal formal resin, and dense bodies were counted.
The plot depicts mean values with 95% LSD intervals.

O=C(O)CN(CCN(CC(=O)O)CC(=O)O)CC(=O)O [EDTA, Ethylenediaminetetraacetic acid]
MPC (platelets [1]; 30 min (baseline), 22° C., n = 8): 259 ± 6.6 g/L | MPC, reduction in % vs 30 min baseline (platelets [1]; 6 hours, 22° C., n = 8): −9% | MPC, reduction in % vs 30 min baseline (platelets [1]; 24 hours, 22° C., n = 8): −21% | mean platelet component (MPC), Average (platelets [1]; 0 min, n 12): 260.83 | mean platelet component (MPC), Average (platelets [1]; 30 min, n 15): 258.07 | mean platelet component (MPC), Average (platelets [1]; 1 h, n 15): 252.00 | mean platelet component (MPC), Average (platelets [1]; 3 h, n 15): 239.07 | mean platelet component (MPC), Average (platelets [1]; 6 h, n 15): 229.87 | mean platelet component (MPC), Average (platelets [1]; 24 h, n 15): 201.07 | mean platelet component (platelets [1]; Table 8, 0, stored at room temperature (22° C.)): 278 | mean platelet component (platelets [1]; Table 8, 1 hr, stored at room temperature (22° C.)): 273 | mean platelet component (platelets [1]; Table 8, 3 hr, stored at room temperature (22° C.)): 265 | mean platelet component (platelets [1]; Table 8, 6 hr, stored at room temperature (22° C.)): 268 | mean platelet component (platelets [1]; Table 8, 24 hr, stored at room temperature (22° C.)): 233 | mean platelet component (platelets [1]; Table 10, 0, stored at room temperature (22° C.)): 258 | mean platelet component (platelets [1]; Table 10, 1 hr, stored at room temperature (22° C.)): 247 | mean platelet component (platelets [1]; Table 10, 3 hr, stored at room temperature (22° C.)): 235 | mean platelet component (platelets [1]; Table 10, 6 hr, stored at room temperature (22° C.)): 225 | mean platelet component (platelets [1]; Table 10, 24 hr, stored at room temperature (22° C.)): 190 | mean platelet component (platelets [1]; Table 11, 0, stored at room temperature (22° C.)): 288 | mean platelet component (platelets [1]; Table 11, 1 hr, stored at room temperature (22° C.)): 282 | mean platelet component (platelets [1]; Table 11, 3 hr, stored at room temperature (22° C.)): 271 | mean platelet component (platelets [1]; Table 11, 6 hr, stored at room temperature (22° C.)): 269 | mean platelet component (platelets [1]; Table 11, 24 hr, stored at room temperature (22° C.)): 227 | decrease in the mean platelet component (platelets [1]; six hours after initial combination (t=0), storage at 22° C., Tables 1 and 2): ~12% | decrease of MPC values (platelets [1]; t=5.5 hr after baseline measurements, room temperature / 22° C.): 9% | MPV (platelets [2]): 8.3 ± 0.2 fL | increase of MPV values (platelets [2]; 5.5 hours after baseline, 22° C.): 10.2% | MPV, increase in % vs 30 min baseline (platelets [2]; 6 hours, 22° C.): +10.2% | MPV, increase in % vs 30 min baseline (platelets [2]; 24 hours, 22° C.): +23% | mean platelet volume (MPV), Average (platelets [2]; 0 min, n 12): 8.36 | mean platelet volume (MPV), Average (platelets [2]; 30 min, n 15): 8.41 | mean platelet volume (MPV), Average (platelets [2]; 1 h, n 15): 8.65 | mean platelet volume (MPV), Average (platelets [2]; 3 h, n 15): 9.22 | mean platelet volume (MPV), Average (platelets [2]; 6 h, n 15): 9.53 | mean platelet volume (MPV), Average (platelets [2]; 24 h, n 15): 10.63 | increase in the mean platelet volume (platelets [2]; six hours after initial combination (t=0), storage at 22° C., Tables 4 and 5): ~12% | P-selectin, % of positive platelets ([3]; 30 min (baseline)): 2.1% | P-selectin, % of positive platelets ([3]; 6 hours): 13.9% | P-selectin, % of positive platelets ([3]; 24 hours): 40.8% | number of α-granules per platelet section (platelets [4]; 6 h): 6.4±2.3 | number of α-granules per platelet section (platelets [4]; 24 h): 3.5±1.4 | number of α-granules per platelet as compared with t=0 (platelets [4]; FIG. 4A, six hours of storage, 22° C.): statistical reduction | number of α-granules per platelet section (platelets [4]; baseline): 12.3±6.07 | Difference, mean number of dense bodies per platelet (platelets [5]; Contrast EDTA 0 hr vs. stored 1 hr): −1.26* | Difference, mean number of dense bodies per platelet (platelets [5]; Contrast EDTA 0 hr vs. stored 24 hr): 2.1* | Difference, mean number of dense bodies per platelet (platelets [5]; Contrast EDTA 1 hr vs. EDTA 6 hr): 1.9*
